# Results published in the NIST ThermoML archive (doi:10.1016/j.tca.2012.02.020).
# Numbers after ± are expanded uncertainties.
# How the values were obtained:
# [1] = Molar enthalpy of transition or fusion; conditions: Crystal; DSC
# [2] = Crystal; visual observation
Structure (SMILES),Molar enthalpy of transition or fusion [1] [kcal/mol],Normal melting temperature [2] [°C]
Clc1ccc(Br)cc1 [1-bromo-4-chlorobenzene],4.76 ± 0.143,65.00 ± 1
O=Cc1cccc(O)c1 [3-hydroxybenzaldehyde],5.76 ± 0.167,103.00 ± 1
Nc1cccc(O)c1 [3-hydroxybenzenamine],6.6 ± 0.191,123.00 ± 1
c1ccc(-c2ccccc2)cc1 [biphenyl],4.61 ± 0.143,70.50 ± 1
